Organism: Rattus norvegicus
Experiment: Open TG-GATES - Regimen: Daily Repeat
Format: toxicity, organism-based, Sprague-Dawley
Parameters: regimen Daily Repeat, gender Male, age 6 weeks
Details: in vivo, po, 0 mg/kg, […], route gavage, dose level Control; for KIDNEY_L / KIDNEY_R / KIDNEY_TOTAL: tissue Kidney; for LIVER: tissue Liver; for A/G / ALP / ALT / AST / BUN / CRE / Ca / Cl / DBIL / GLC / IP / K / LDH / Na / PL / RALB / TBIL / TC / TG / TP / gamma-GTP: tissue Plasma

Compound C=CCO [ALLYL ALCOHOL] has a Lym (tissue Blood, time 28 day) of 81.8%, an MCH (tissue Blood, time 28 day) of 19.6 pg and an MCHC (tissue Blood, time 28 day) of 34.7%. It also gave an MCV (tissue Blood, time 28 day) of 56.5 fL, a Mono (tissue Blood, time 28 day) of 2.4% and a Neu (tissue Blood, time 28 day) of 14.4%. The PT (tissue Blood, time 28 day) was 11.8 s, the Plat (tissue Blood, time 28 day) was 111.6 x10_4/uL and the RBC (tissue Blood, time 28 day) was 801.6 x10_4/ul. For the same compound, the Ret (tissue Blood, time 28 day) was 2.6%, the WBC (tissue Blood, time 28 day) was 94.8 x10_2/uL and the KIDNEY_L (time 7 day) was 1.1 g. It also gave a KIDNEY_R (time 7 day) of 1.1 g, a KIDNEY_TOTAL (time 7 day) of 2.2 g and a KIDNEY_L (time 14 day) of 1.2 g. It also gave a KIDNEY_R (time 14 day) of 1.2 g, a KIDNEY_TOTAL (time 14 day) of 2.4 g and a KIDNEY_L (time 28 day) of 1.3 g. For the same compound, the KIDNEY_R (time 28 day) was 1.3 g, the KIDNEY_TOTAL (time 28 day) was 2.6 g and the LIVER (time 7 day) was 13.1 g. For the same compound, the LIVER (time 14 day) was 14.1 g, the LIVER (time 28 day) was 16 g and the A/G (time 7 day) was 1.5. For the same compound, the ALP (time 7 day) was 889.2 IU/L, the ALT (time 7 day) was 34 IU/L and the AST (time 7 day) was 60.8 IU/L. It also gave a BUN (time 7 day) of 16.6 mg/dL, a CRE (time 7 day) of 0.4 mg/dL and a Ca (time 7 day) of 10.9 mg/dL. It also gave a Cl (time 7 day) of 102 meq/L, a DBIL (time 7 day) of 0.098 mg/dL and a GLC (time 7 day) of 219.6 mg/dL. It also gave an IP (time 7 day) of 6.9 mg/dL, a K (time 7 day) of 3.9 meq/L and an LDH (time 7 day) of 180.4 IU/L. It also gave a Na (time 7 day) of 140.6 meq/L, a PL (time 7 day) of 146 mg/dL and an RALB (time 7 day) of 3.4 g/dL. It also gave a TBIL (time 7 day) of 0.2 mg/dL, a TC (time 7 day) of 74 mg/dL and a TG (time 7 day) of 124.4 mg/dL. The TP (time 7 day) was 5.6 g/dL, the gamma-GTP (time 7 day) was 0.8 IU/L and the A/G (time 14 day) was 1.4. The ALP (time 14 day) was 766.2 IU/L, the ALT (time 14 day) was 34.2 IU/L and the AST (time 14 day) was 61.2 IU/L. It also gave a BUN (time 14 day) of 14.8 mg/dL, a CRE (time 14 day) of 0.4 mg/dL and a Ca (time 14 day) of 10.5 mg/dL. The Cl (time 14 day) was 101.4 meq/L, the DBIL (time 14 day) was 0.072 mg/dL and the GLC (time 14 day) was 234 mg/dL. It also gave an IP (time 14 day) of 6.9 mg/dL, a K (time 14 day) of 3.7 meq/L and an LDH (time 14 day) of 223.2 IU/L. The Na (time 14 day) was 140.2 meq/L, the PL (time 14 day) was 141.2 mg/dL and the RALB (time 14 day) was 3.4 g/dL. For the same compound, the TBIL (time 14 day) was 0.1 mg/dL, the TC (time 14 day) was 68.8 mg/dL and the TG (time 14 day) was 101 mg/dL. For the same compound, the TP (time 14 day) was 5.8 g/dL, the gamma-GTP (time 14 day) was 1.2 IU/L and the A/G (time 28 day) was 1.3. The ALP (time 28 day) was 588.4 IU/L, the ALT (time 28 day) was 33.6 IU/L and the AST (time 28 day) was 59.2 IU/L. The BUN (time 28 day) was 15.4 mg/dL, the CRE (time 28 day) was 0.5 mg/dL and the Ca (time 28 day) was 10.5 mg/dL. It also gave a Cl (time 28 day) of 101.8 meq/L, a DBIL (time 28 day) of 0.068 mg/dL and a GLC (time 28 day) of 222.2 mg/dL. For the same compound, the IP (time 28 day) was 6.1 mg/dL, the K (time 28 day) was 3.4 meq/L and the LDH (time 28 day) was 166.6 IU/L. For the same compound, the Na (time 28 day) was 140.6 meq/L, the PL (time 28 day) was 141.8 mg/dL and the RALB (time 28 day) was 3.5 g/dL. The TBIL (time 28 day) was 0.1 mg/dL, the TC (time 28 day) was 71.2 mg/dL and the TG (time 28 day) was 100.2 mg/dL. The TP (time 28 day) was 6.2 g/dL and the gamma-GTP (time 28 day) was 1 IU/L.
